This assay has as its target T1, human leukocyte elastase (HLE) (Homo sapiens, UniProt P08246).
T1 sequence (P08246 30-267): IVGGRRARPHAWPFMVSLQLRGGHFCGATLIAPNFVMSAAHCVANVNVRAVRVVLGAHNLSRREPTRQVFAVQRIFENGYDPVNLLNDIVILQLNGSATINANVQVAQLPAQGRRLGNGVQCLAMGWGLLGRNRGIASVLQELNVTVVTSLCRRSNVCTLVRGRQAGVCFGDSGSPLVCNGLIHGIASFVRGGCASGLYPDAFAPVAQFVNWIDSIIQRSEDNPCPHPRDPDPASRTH
Briefly: Inactivation of human leukocyte elastase: kon measured, Ki* = koff/kon calculated. Type of assay: biochemical. The conditions noted are these: for kinact/KI: read-out: 10^-3 x kon; for Ki: Ki* = koff/kon, not a truly reversible inhibition constant.

Setting [1] is: Elastase, rate of inactivation kon = kobs/[I], value is kon x 10^-3.

Molecules are shown by their SMILES. Like-named read-outs stand apart in the source and are kept apart here. Where only a bound is given, the exact number is not on record here.

Method: Thus, instead of measuring a Ki, a Ki* is calculated which is defined as the ratio of the koff/kon, the rate of reactivation of the enzyme to the rate of inactivation of the enzyme. The values of koff and kon are measured and Ki* is then calculated.
The rate of inactivation, kon, of enzymatic activity was determined for the compounds tested by measuring the enzyme activity of an aliquot of the respective enzyme as a function of time after addition of the test compound. […] The rate of inactivation is then equal to kon =(kobs)/([I]) [formula] where [I] is the concentration of the inhibiting compound.
The reactivation constant, koff, is similarly determined and the inhibition constant, Ki*, is then calculated as Ki * = koff /kon [formula]

Turning to `O=C1c2cc([N+](=O)[O-])ccc2S(=O)(=O)N1CSc1nnnn1-c1ccccc1` [Example 11, 5-nitro-2-(1-phenyl-1H-tetrazol-5-ylthiomethyl)saccharin], the kinact/KI is 4600 M⁻¹ s⁻¹.

With `O=C1c2ccccc2S(=O)(=O)N1CF` [Example 27, 2-fluoromethylsaccharin], the kinact/KI under setting [1] was 7500 M⁻¹ s⁻¹.

Take `CC(C)c1cccc2c1C(=O)N(Cn1nnn(-c3cccnc3)c1=S)S2(=O)=O` [Example 30Z]: the kinact/KI under setting [1] is 70000 M⁻¹ s⁻¹.

For the molecule `Cn1nnc(SCN2C(=O)c3ccccc3S2(=O)=O)n1` [Example 30X], under setting [1], the kinact/KI is 550 M⁻¹ s⁻¹.

As for `O=C1c2ccccc2S(=O)(=O)N1CSc1nncn1-c1ccccc1` [Example 30I], the kinact/KI under setting [1] was 450 M⁻¹ s⁻¹.

As to `O=C1c2ccccc2S(=O)(=O)N1Cn1nnn(-c2ccccc2)c1=O` [Example 30BH], the Ki (Elastase) is above 10000 nM.

For `COC(=O)C(Sc1nnnn1-c1ccccc1)N1C(=O)c2ccccc2S1(=O)=O` (stereo not drawn) [Example 17, methyl 2-(1-phenyl-1H-tetrazol-5-ylthio)2-(2-saccharinyl)acetate], the kinact/KI under setting [1] is 2900 M⁻¹ s⁻¹.

For `COc1cccc2c1C(=O)N(CCl)S2(=O)=O` [Example 22A, 2-chloromethyl-4-methoxysaccharin], under setting [1], the kinact/KI is 12400 M⁻¹ s⁻¹.

Turning to `CCOc1cccc2c1C(=O)N(CCl)S2(=O)=O` [Example 22H], the kinact/KI under setting [1] is 25000 M⁻¹ s⁻¹.

For `CCC(CC)c1cccc2c1C(=O)N(CCl)S2(=O)=O` [Example 22C, 2-chloromethyl-4-(3-pentyl)saccharin], the kinact/KI under setting [1] was 105000 M⁻¹ s⁻¹.

Take `O=C1c2ccccc2S(=O)(=O)N1CSc1nc2ccc([N+](=O)[O-])cc2s1` [Example 30BD]: under setting [1], the kinact/KI is 11700 M⁻¹ s⁻¹.

For `CC(C)c1cccc2c1C(=O)N(CSc1nnnn1CCN1CCOCC1)S2(=O)=O` [Example 30BI], the kinact/KI under setting [1] was 39000 M⁻¹ s⁻¹.

Consider `CCc1cccc2c1C(=O)N(CSc1nnnn1CCN1CCOCC1)S2(=O)=O` [Example 30J], for which the kinact/KI under setting [1] is 14000 M⁻¹ s⁻¹.

Regarding `O=C1c2ccccc2S(=O)(=O)N1CSc1nnc(SCCN2CCCCC2)s1` [Example 33C, 2-(5-[2-(1-piperidinyl)ethylthio]-1,3,4-thiadiazol-2-ylthiomethyl) saccharin], under setting [1], the kinact/KI was 200 M⁻¹ s⁻¹.

As to `O=C1c2ccccc2S(=O)(=O)N1CSc1nnnn1C1CCCCC1` [Example 9, 2-(1-cyclohexyl-1H-tetrazol-5-ylthiomethyl)saccharin], the Ki (Elastase) was 32 nM. Also, the kinact/KI under setting [1] is 2500 M⁻¹ s⁻¹.

For `CCCCCCC(=O)Nc1cccc(-n2nnnc2SCN2C(=O)c3ccccc3S2(=O)=O)c1` [Example 7, 2-[1-(3-heptanamidophenyl)-1H-tetrazol-5-ylthiomethyl]saccharin], the kinact/KI under setting [1] was 5200 M⁻¹ s⁻¹.

As to `CCc1cccc2c1C(=O)N(CSc1nnnn1CC(=O)N(C)C)S2(=O)=O` [Example 30AV], the kinact/KI under setting [1] was 7600 M⁻¹ s⁻¹.

With `O=C1c2ccccc2S(=O)(=O)N1CSc1nnc(SCCN2CCOCC2)s1` [Example 33, 2-(5-[2-(4-morpholinyl)ethylthio]-1,3,4-thiadiazol-2-ylthiomethyl)saccharin], the kinact/KI under setting [1] was 3600 M⁻¹ s⁻¹.

Turning to `CC(=O)Nc1ccc2c(c1)C(=O)N(CSc1nnnn1-c1ccccc1)S2(=O)=O` [Example 37, 5-acetylamino-2-(1-phenyl-1H-tetrazol-5-ylthiomethyl)saccharin], the Ki (Elastase) was above 90000 nM.

Turning to `O=C1c2cccc(Cl)c2S(=O)(=O)N1CCl` [Example 22D], the kinact/KI under setting [1] was 75800 M⁻¹ s⁻¹.

In the case of `CC(C)c1cccc2c1C(=O)N(Cn1nnn(-c3ccccc3)c1=S)S2(=O)=O` [Example 30AJ], the kinact/KI under setting [1] is 1800 M⁻¹ s⁻¹.

Take `O=C1c2ccccc2C(=O)N1CN1C(=O)c2ccccc2S1(=O)=O` [Example 30BF]: the “10^-3 x kon” value under setting [1] was 0.02 M^-1 sec^-1.

Regarding `Cc1ccc(C)c2c1C(=O)N(CCl)S2(=O)=O` [Example 29, 2-chloromethyl-4,7-dimethylsaccharin], the kinact/KI under setting [1] was 1100 M⁻¹ s⁻¹.

In the case of `O=C1c2c(Cl)cccc2S(=O)(=O)N1CSc1nnnn1-c1ccccc1` [Example 4, 4-chloro-2-(1-phenyl-1H-tetrazol-5-ylthiomethyl) saccharin], the kinact/KI under setting [1] was 20000 M⁻¹ s⁻¹.

Regarding `Nc1cccc(-n2nnnc2SCN2C(=O)c3ccccc3S2(=O)=O)c1` [Example 30C, 2-[1-(3-aminophenyl)-1H-tetrazol-5-ylthiomethyl]saccharin], the kinact/KI under setting [1] is 2500 M⁻¹ s⁻¹.

As for `O=C1c2ccccc2S(=O)(=O)N1COc1c(Cl)cccc1Cl` [Example 30BB], under “Elastase”, the Ki is above 500 nM.

`O=C(O)c1ccc(-n2nnnc2SCN2C(=O)c3ccccc3S2(=O)=O)cc1` [Example 30D]: under setting [1], the kinact/KI is 800 M⁻¹ s⁻¹.

In the case of `CCC(C)c1cccc2c1C(=O)N(CCl)S2(=O)=O` (stereo not drawn) [Example 22B, 2-chloromethyl-4-sec.-butylsaccharin], the kinact/KI under setting [1] was 2400 M⁻¹ s⁻¹.

With `O=C1C=Cc2ccc(OCN3C(=O)c4ccccc4S3(=O)=O)c3cccc1c23` [Example 30G], under setting [1], the kinact/KI is 9300 M⁻¹ s⁻¹.

Turning to `O=C1c2ccccc2S(=O)(=O)N1CSc1nc2ccc([N+](=O)[O-])cc2o1` [Example 30BE], the kinact/KI under setting [1] was 7400 M⁻¹ s⁻¹.

With `O=C1c2cccc(Cl)c2S(=O)(=O)N1CSc1nnnn1-c1ccccc1` [Example 30AG], the Ki (Elastase) was above 1000 nM.

On to `O=C1c2c(-c3ccccc3)cccc2S(=O)(=O)N1CSc1nnnn1-c1ccccc1` [Example 30BC], for which the Ki (Elastase) was 80 nM. The kinact/KI under setting [1] is 5800 M⁻¹ s⁻¹.

Turning to `COCCOCCOc1ccc(OC)c2c1S(=O)(=O)N(CSc1nnnn1-c1ccccc1)C2=O` [Example 30M], under setting [1], the kinact/KI was 1000 M⁻¹ s⁻¹.

Consider `CC(C)c1cccc2c1C(=O)N(CSc1nnnn1CC(=O)N(C)C)S2(=O)=O` [Example 30AW], for which the kinact/KI under setting [1] is 30000 M⁻¹ s⁻¹.

`COC(=O)c1cc(C(=O)OC)cc(-n2nnnc2SCN2C(=O)c3ccccc3S2(=O)=O)c1` [Example 30E]: the kinact/KI under setting [1] is 7300 M⁻¹ s⁻¹.

Turning to `Cn1cnnc1SCN1C(=O)c2ccccc2S1(=O)=O` [Example 30AC], the Ki (Elastase) was 246 nM. For the same molecule, the kinact/KI under setting [1] is 190 M⁻¹ s⁻¹.

Regarding `CN(C)CCSc1nnc(SCN2C(=O)c3ccccc3S2(=O)=O)s1` [Example 33B, 2-(5-[2-(N,N-dimethylamino)ethylthio]-1,3,4-thiadiazol-2-ylthiomethyl)saccharin], under setting [1], the kinact/KI is 4000 M⁻¹ s⁻¹.

`CCOc1cccc2c1C(=O)N(CSc1nnnn1-c1ccccc1)S2(=O)=O` [Example 30AT]: the Ki (Elastase) is 3 nM. Further, the kinact/KI under setting [1] is 45300 M⁻¹ s⁻¹.

In the case of `CCOC(=O)Cn1nnnc1SCN1C(=O)c2ccccc2S1(=O)=O` [Example 30AP], under setting [1], the kinact/KI was 1300 M⁻¹ s⁻¹.

Regarding `O=C1c2ccccc2S(=O)(=O)N1CS(=O)(=O)c1c(Cl)cccc1Cl` [Example 32A, 2-(2,6-dichlorophenylsulfonylmethyl)saccharin], the kinact/KI under setting [1] is 600 M⁻¹ s⁻¹.

Regarding `O=C1c2ccccc2S(=O)(=O)N1CSc1nnnn1CCO` [Example 30AQ, 2-[1-(2-hydroxyethyl)-1H-tetrazol-5-ylthiomethyl]saccharin], the kinact/KI under setting [1] is 900 M⁻¹ s⁻¹.

As for `O=C1c2ccc([N+](=O)[O-])cc2S(=O)(=O)N1CSc1nnnn1-c1ccccc1` [Example 31C], the kinact/KI under setting [1] is 3400 M⁻¹ s⁻¹.

`O=C(O)c1cccc(-n2nnn(CN3C(=O)c4ccccc4S3(=O)=O)c2=S)c1` [Example 30-O]: the kinact/KI under setting [1] was 30 M⁻¹ s⁻¹.

Consider `COc1ccc2c(c1OC)C(=O)N(CCl)S2(=O)=O` [Example 22F], for which the kinact/KI under setting [1] was 20000 M⁻¹ s⁻¹.

As for `O=C1c2c(Br)cccc2S(=O)(=O)N1CCl` [Example 21, 2-chloromethyl-4-bromosaccharin], the kinact/KI under setting [1] was 950000 M⁻¹ s⁻¹.

`O=C1c2ccccc2S(=O)(=O)N1CSc1nnc2ccccn12` [Example 30N]: the kinact/KI under setting [1] is 250 M⁻¹ s⁻¹.

`O=C1c2ccccc2S(=O)(=O)N1CSc1nc(-c2ccccc2)ns1` [Example 30AF]: the “10^-3 x kon” value under setting [1] is given as 4.2 M^-1 sec^-1.

`O=C1c2ccccc2S(=O)(=O)N1CSc1nnnn1-c1cccnc1` [Example 30Q]: the kinact/KI under setting [1] is 1380 M⁻¹ s⁻¹.

With `CC(C)Oc1cccc2c1C(=O)N(CSc1nnnn1-c1ccccc1)S2(=O)=O` [Example 30AU], where the note is “Elastase”, the Ki was 17.5 nM. Besides, the kinact/KI under setting [1] is 8900 M⁻¹ s⁻¹.

In the case of `CCc1cccc2c1C(=O)N(CCl)S2(=O)=O` [Example 28], under setting [1], the “10^-3 x kon” value is 50.7 M^-1 sec^-1.

Take `O=C1c2ccccc2S(=O)(=O)N1CSc1ncccn1` [Example 30F, 2-(2-pyrimidylthiomethyl)saccharin]: the Ki (Elastase) is above 85000 nM.

With `O=C1c2ccccc2S(=O)(=O)N1Cn1nnn(-c2cccnc2)c1=S` [Example 30R], under setting [1], the kinact/KI is 2300 M⁻¹ s⁻¹.

For `CN(C)C(=O)Cn1nnnc1SCN1C(=O)c2ccccc2S1(=O)=O` [Example 30AS], the kinact/KI under setting [1] was 1700 M⁻¹ s⁻¹.

Take `COC(=O)c1cn(-c2ccccc2)c(SCN2C(=O)c3ccccc3S2(=O)=O)n1` [Example 30AR]: under setting [1], the kinact/KI is 300 M⁻¹ s⁻¹.

In the case of `O=C1c2ccccc2S(=O)(=O)N1/C=C/CSc1nnnn1-c1ccccc1` [Example 38, trans-2-[3-(1-phenyl-1H-tetrazol-5-ylthio)-1-propenyl]saccharin], the kinact/KI under setting [1] is 43000 M⁻¹ s⁻¹.

Turning to `Cc1nnc(SCN2C(=O)c3c(C(C)C)cccc3S2(=O)=O)s1` [Example 30AM], the kinact/KI under setting [1] is 12300 M⁻¹ s⁻¹.

As for `O=C1c2ccccc2S(=O)(=O)N1CSc1nnnn1CCN1CCOCC1` [Example 30BG], the kinact/KI under setting [1] is 1700 M⁻¹ s⁻¹.

In the case of `O=C1c2ccccc2S(=O)(=O)N1COc1ccc([N+](=O)[O-])cc1` [Example 15, 2-(4-nitrophenoxymethyl)saccharin], under setting [1], the kinact/KI is 3200 M⁻¹ s⁻¹.

`Cc1nnc(SCN2C(=O)c3ccccc3S2(=O)=O)s1` [Example 30AB]: under setting [1], the kinact/KI was 2800 M⁻¹ s⁻¹.

Turning to `CCOc1ccc(OCCOCCOC)c2c1C(=O)N(CSc1nnnn1-c1ccccc1)S2(=O)=O` [Example 30L], the kinact/KI under setting [1] was 6500 M⁻¹ s⁻¹.

As to `O=C(O)Cn1nnnc1SCN1C(=O)c2ccccc2S1(=O)=O` [Example 34, 2-[1-(2-carboxymethyl)-1H-tetrazol-5-ylthiomethyl]saccharin], the kinact/KI under setting [1] was 400 M⁻¹ s⁻¹.

The values are drawn from EP0471756B1, “SACCHARIN DERIVATIVES USEFUL AS PROTEOLYTIC ENZYME INHIBITORS AND PREPARATION THEREOF” (priority 1989, dated 1990).
